# Assays:
# Assay in all cases: relative viability (nuclei count vs DMSO), 5 days (fraction); higher = more cells survive
# [1] = compound: COC1=C(C=C(C=C1)C2=CC3=NC=CN3C(=N2)NC4=C(C=CC=N4)C(=O)N)OC [BAY61-3606] + Cc1nc(Nc2ncc(C(=O)Nc3c(C)cccc3Cl)s2)cc(N2CCN(CCO)CC2)n1 [Dasatinib] (partner 0.075 µM)
# How it was run: (§1)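 Nuclei were stained with Hoechst during a one-step fixation (final 0.05% Triton X-100, 1% formaldehyde, 1 ug/ml Hoechst) carried out 5 days after dosing, then counted on 4× images. The cells, lung cancer lines in 1536-well plates, had been dosed by pin tool the day after seeding with one drug alone or a fixed anchor-drug dose plus five library-drug doses (not always all listed) in √10 steps. Relative viability is the nuclei count in treated wells divided by that in vehicle wells, and each value is the median of duplicate plates.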
# [2] = compound: COc1cccc2c1C(=O)c1c(O)c3c(c(O)c1C2=O)C[C@@](O)(C(=O)CO)C[C@@H]3O[C@H]1C[C@H](N)[C@H](O)[C@H](C)O1 [Doxorubicin] + Cc1cc(Nc2cc(N3CCN(C)CC3)nc(Sc3ccc(NC(=O)C4CC4)cc3)n2)n[nH]1 [Tozasertib] (partner 0.1 µM)
# How it was run: as §1
# [3] = compound: COc1cccc2c1C(=O)c1c(O)c3c(c(O)c1C2=O)C[C@@](O)(C(=O)CO)C[C@@H]3O[C@H]1C[C@H](N)[C@H](O)[C@H](C)O1 [Doxorubicin] + Nc1nc2[nH]cc(CCc3ccc(C(=O)N[C@@H](CCC(=O)O)C(=O)O)cc3)c2c(=O)[nH]1 [Pemetrexed] (partner 0.2 µM)
# How it was run: as §1
# [4] = compound: COc1cccc2c1C(=O)c1c(O)c3c(c(O)c1C2=O)C[C@@](O)(C(=O)CO)C[C@@H]3O[C@H]1C[C@H](N)[C@H](O)[C@H](C)O1 [Doxorubicin] + CC(C)C[C@H](NC(=O)[C@H](Cc1ccccc1)NC(=O)c1cnccn1)B(O)O [Bortezomib] (partner 0.002 µM)
# How it was run: as §1
Cell Line,relative viability ([1]; first compound 0.02 µM),relative viability ([1]; first compound 0.06325 µM),relative viability ([1]; first compound 0.2 µM),relative viability ([1]; first compound 0.6325 µM),relative viability ([1]; first compound 2 µM),relative viability ([2]; first compound 0.001 µM),relative viability ([2]; first compound 0.003162 µM),relative viability ([2]; first compound 0.01 µM),relative viability ([2]; first compound 0.03162 µM),relative viability ([2]; first compound 0.1 µM),relative viability ([3]; first compound 0.001 µM),relative viability ([3]; first compound 0.003162 µM),relative viability ([3]; first compound 0.01 µM),relative viability ([3]; first compound 0.03162 µM),relative viability ([3]; first compound 0.1 µM),relative viability ([4]; first compound 0.001 µM),relative viability ([4]; first compound 0.003162 µM),relative viability ([4]; first compound 0.01 µM),relative viability ([4]; first compound 0.03162 µM),relative viability ([4]; first compound 0.1 µM)
LC-2-ad,0.569,0.496,0.753,0.622,0.27,0.455,0.402,0.401,0.246,0.239,0.267,0.255,0.264,0.305,0.288,1.01,0.962,0.995,0.834,0.544
LCLC-97TM1,0.722,0.98,1.03,0.804,0.864,0.183,0.191,0.216,0.268,0.319,0.188,0.179,0.179,0.17,0.181,0.528,0.434,0.265,0.151,0.0908
LCLC-103H,0.537,0.407,0.465,0.55,0.446,0.531,0.411,0.465,0.414,0.529,0.499,0.484,0.458,0.467,0.466,1.07,1.12,1.08,1.14,1.12
LOU-NH91,0.538,0.495,0.513,0.538,0.489,0.638,0.644,0.71,0.638,0.615,,0.415,0.359,0.365,0.276,0.493,0.477,0.479,0.487,0.407
LU99A,0.561,0.509,0.505,0.51,0.303,0.298,0.28,0.287,0.281,0.309,0.199,0.186,0.191,0.173,0.165,1.1,1.23,1.14,0.764,0.5
LXF-289,0.261,0.205,0.187,0.187,0.129,0.205,0.192,0.192,0.221,0.2,0.95,0.917,0.839,1.03,0.929,1.01,1.02,0.998,0.996,0.926
NCI-H23,0.801,0.713,0.645,0.606,0.677,,0.452,0.362,0.389,0.397,0.515,0.685,0.667,0.661,0.444,,1.06,0.93,0.514,0.567
NCI-H322M,0.247,0.232,0.256,0.233,0.224,0.518,0.506,0.518,0.437,0.383,0.682,0.542,0.66,0.548,0.512,1.45,1.21,1.28,1.27,1.18
NCI-H441,0.614,0.655,0.54,0.521,0.438,,0.612,0.511,0.249,0.245,0.253,0.264,0.265,0.229,0.224,,0.452,0.392,0.295,0.315
NCI-H460,0.574,0.493,0.533,0.421,0.284,0.419,0.388,0.264,0.185,0.165,0.0538,0.064,0.0574,0.0641,0.0392,0.981,0.964,0.244,0.0223,0.0093
NCI-H520,0.191,0.193,0.216,0.184,0.151,0.409,0.432,0.434,0.343,0.413,0.789,0.728,0.681,0.703,0.604,0.575,0.581,0.46,0.361,0.269
NCI-H596,0.644,0.481,0.618,0.594,0.489,0.857,1.08,0.943,0.806,0.859,0.499,0.505,0.526,0.473,0.486,,1.26,1.01,0.928,0.972
NCI-H647,0.193,0.158,0.189,0.164,0.0812,0.305,0.181,0.431,0.18,0.125,0.211,0.168,0.196,0.127,0.163,1.03,1.04,0.907,0.213,0.111
NCI-H650,0.52,0.378,0.363,0.428,0.361,0.908,0.736,0.784,0.582,0.63,1.05,0.846,0.926,0.867,0.784,0.862,0.688,0.914,0.697,0.511
NCI-H661,0.985,0.835,0.861,0.886,0.702,0.37,0.354,0.349,0.339,0.388,0.894,1.02,0.891,0.754,0.643,0.919,0.849,0.836,0.776,0.865
NCI-H838,0.284,0.299,0.291,0.251,0.237,0.281,0.306,0.261,0.274,0.226,0.252,0.228,0.229,0.256,0.236,0.89,1.03,0.967,0.384,0.17

# Source: the supplement of paper PMC10307832
